In PMC4494942, “Sorafenib and DE605, a novel c-Met inhibitor, synergistically suppress hepatocellular carcinoma” (Oncotarget, 2015):

How the values were obtained:
[1] = system: MHCC97H human HCC xenograft model and HuPrime model with human HCC explants; details: cited from earlier work
HepG2 cells = assay: MTT cell viability assay, HepG2; type: cell-based; details: Homo sapiens, HepG2, 72 h
Description: (§1) Cells were seeded in 96-well plates (3,000 cells/well) and incubated overnight for attachment, and were then treated with indicated agents in 10% FBS-supplemented medium for 72 hours. The medium was replaced with MTT (0.5 mg/ml) at 37°C for 2 hours. After removal of medium, the cells were lysed with 200 μl per well dimethyl sulfoxide (DMSO), and absorbance at 570 nm was measured and the values of 50% inhibition concentration (IC50) for each drug were determined. Cell viability was evaluated by measuring the optical density at 570 nm using an Automated Microplate Reader (Bio-Tek, USA). The percentage of viable cells was calculated using the following formula: cell viability (%) = (OD of treated cells/OD of control cells) × 100. All assays were performed in triplicate with at least 3 independent experiments.

Hep3B cells = assay: MTT cell viability assay, Hep3B; details: Homo sapiens, 72 h, read-out: cell viability IC50
Description: as §1

HuH7 cells = assay: MTT cell viability assay, HuH7; type: cell-based; details: Homo sapiens, Huh-7, HuH7, 72 h
Description: as §1

[2] = system: PLC/PRF/5 tumor xenografts; assay: PLC/PRF/5 tumor xenograft model; details: oral, qd, 28 days; sorafenib 60 mg/kg, DE605 80 mg/kg; versus control group
Description: (B) body weights were measured twice per week, and are expressed as mean ± SD. (C-D) IHC analysis of intratumoral proliferation in PLC/PRF/5 xenograft tumors. Tumors were harvested and paraffin-embedded tumor tissues were subjected to immunostaining for Ki-67 (C) and TUNEL (D). Images were captured by Zeiss Axioskop-2 microscope under 200× magnification. Scale bar, 100 μm.
All surgery was performed under sodium pentobarbital anesthesia, and all efforts were made to minimize suffering. Female athymic nude mice of 4–5 weeks of age were purchased from Shanghai SLAC Laboratory Animal Co., Ltd. (Shanghai, China) and were housed in the Animal Resource Facility. […] Tumors were monitored twice weekly. As previously described [54], tumor size was measured on two axes with the aid of Vernier calipers and tumor volume (mm^3) was calculated using the formula: 1/2(L × W^2) where L is the longest and W is the shortest axis. […] For tumor growth inhibition (TGI), the antitumor effects are calculated by dividing the tumor volumes from treatment groups by those of the control groups and multiplied by 100. […]
The type of cell death (necrosis/apoptosis) was evaluated by the terminal deoxynucleotidyl transferase-mediated deoxyuridine biotin nick-end labeling (TUNEL) assay with an Apo-Direct kit (Pharmingen, San Diego, CA) as previously reported [55]. […]

PLC/PRF/5 cells [3] = assay: MTT cell viability assay, PLC/PRF/5; type: cell-based, human; details: PLC/PRF/5, 72 h
Description: as §1

PLC/PRF/5 cells [4] = assay: cell-cycle distribution by flow cytometry; type: cell-based, human; details: PLC/PRF/5, 72 h, single agent
Description: As sorafenib and c-Met inhibitors reportedly induce apoptosis in cancer cells, we examined the impact of our drug combination on programmed cell death. First, the effect of co-administration of DE605 and sorafenib on cell-cycle distribution was analyzed by flow cytometric analysis.
Figure 3 Effects of sorafenib in combination with DE605 on cell-cycle progression in PLC/PRF/5 cells (A) PLC/PRF/5 cells were treated with the indicated drugs for 72 hours, and cell-cycle distribution was analyzed by flow cytometry. (B) Statistical analysis of sub-G1 phase in PLC/PRF/5 cells exposed to DMSO, sorafenib alone, DE605 alone, or in sorafenib/DE605 combination. Data, mean ± SD (n = 3).
After drug treatment, the cells were harvested by trypsinization, washed with PBS, then pellets were resuspended and fixed in ethanol (70%, v/v) at −20°C overnight, and washed once with PBS. After centrifugation, the cells were incubated for 15 minutes at room temperature in 0.1 ml of phosphate-citric acid buffer. Cells were stained with propidium iodide staining buffer containing Triton X-100 (0.1%, v/v), RNase A (100 μg/ml), and propidium iodide (80 μg/ml) for 30 minutes in the dark. Cell-cycle distribution was analyzed by flow cytometry with CellQuest software (Becton Dickinson).

CN1CCC(COc2cnc(-c3cccc(Cn4nc(-c5cccc(C#N)c5)ccc4=O)c3)nc2)CC1 [MSC2156119J]
efficacy of combination with sorafenib [1]: did not improve efficacy

CNC(=O)c1cc(Oc2ccc(NC(=O)Nc3ccc(Cl)c(C(F)(F)F)c3)cc2)ccn1 [sorafenib]
IC50 (HepG2 cells): 3.3 µM
IC50 (Hep3B cells): 10.5 µM
IC50 (HuH7 cells): 2.4 µM
tumor growth inhibition (TGI) [2]: 17.3%
IC50 (PLC/PRF/5 cells [3]; Homo sapiens, MTT): 6.7 µM
cell-cycle arrest (PLC/PRF/5 cells [4]): no appreciable cell-cycle arrest

O=C1NC(=O)[C@@H](c2cn3c4c(cccc24)CCC3)[C@@H]1c1c[nH]c2ccccc12 [tivantinib]
interaction with sorafenib on cell viability (combination index) (PLC/PRF/5 cells [3]; tivantinib 0.25 and 0.5 μM in combination with sorafenib): synergistic effect
